From patent publication US20240252546A1, “NEURITE OUTGROWTH PROMOTION KIT AND USE THEREFOR” (KEIO UNIVERSITY, priority 2021, published 2024)

What was measured:
Format in all cases: cell-based, human
[1] = system: nerve cells induced from neurospheres derived from 201B7 cells; experiment: Neurite outgrowth of nerve cells differentiated from γ-secretase inhibitor-treated neurospheres (Experimental Example 1); conditions: for neurite outgrowth, Tau protein immunostaining / neurite outgrowth (length of the neurite), βIII-tubulin immunostaining: 201B7 neurospheres cultured 24 hours with inhibitor (10 μM DAPT, 1 μM Compound 34), differentiated 14 days; for neurite outgrowth (length of the neurite), βIII-tubulin immunostaining: vs control and other γ-secretase inhibitors
Excerpt: Various γ-secretase inhibitors were allowed to act on neurospheres derived from human iPS cells. Subsequently, each neurosphere was induced to differentiate into nerve cells, and the neurite outgrowth was examined. The following inhibitors were used as γ-secretase inhibitors: DAPT (CAS Number: 208255-80-5), Compound 34 (CAS Number: 564462-36-8), L-685,458 (CAS Number: 292632-98-5), LY411575 (CAS number: 209984-57-6), Sulindac (CAS number: 38194-50-2, which is also an anti-inflammatory drug), and Compound E (CAS number: 209986-17-4).
First, 201B7 cells, which are cells of a human iPS cell line, were differentiated into neurospheres. 3 μM SB431542 (Tocris Bioscience, catalog number: “301836-41-9”) and 150 nM LDN193189 (StemRD Inc., catalog number: “1062368-24-4”) were added to a culture medium of 201B7 cells, and the cells were treated for 6 days.
Subsequently, the cells were dissociated and seeded in a cell culture dish (product name: “ultralow-attachment culture dish”, Corning Incorporated) at a cell density of 1× 10^5 cells/mL in a nerve induction medium, and then cultured for 6 days in a hypoxic and moist environment (4% O2 and 5% CO2) to carry out differentiation into neurospheres.
The culture medium used as the nerve induction medium was a culture medium obtained by adding a 2% B27 supplement (without vitamin A, Thermo Fisher Scientific, Inc., catalog number: “17504-044”), 20 ng/ml of FGF2 (PeproTech, Inc.), 10 μM Y27632 (Sigma-Aldrich Co., LLC, catalog number: “146986-50-7”), 1 μM retinoic acid (RA, Sigma-Aldrich Co., LLC, catalog number: “R2625-1G”), 3 μM CHIR 99021 (ReproCELL Inc., catalog number: “04-0004”), and 10 μM SB431542 (Calbiochem, catalog number: “301836-41-9”), to an MHM medium of which the composition is shown in Table 1 below.
Subsequently, the formed neurospheres were dissociated into single cells, the single cells were passaged in a modified nerve induction medium and cultured for 6 days in a hypoxic environment (4% O2). The culture medium used as the modified nerve induction medium was a culture medium obtained by adding a 2% B27 supplement (without vitamin A, catalog number: “17504-044”, Thermo Fisher Scientific, Inc.), 20 ng/ml of FGF2 (PeproTech, Inc.), 10 μM Y27632 (catalog number: “146986-50-7”, Sigma-Aldrich Co., LLC), and 1 μM retinoic acid (RA, catalog number: “R2625-1G”, Sigma-Aldrich Co., LLC), to an MHM medium of which the composition is shown in Table 1 above.
Subsequently, neurospheres were cultured for 24 hours in the presence of each γ-secretase inhibitor. Each inhibitor was added to a culture medium of the neurosphere so that the final concentration was 10 μM for DAPT, 1 μM for Compound 34, 10 μM for L-685,458, 10 μM for LY411575, 10 μM for Sulindac, and 5 μM for Compound E. In addition, a control group cultured in the absence of a γ-secretase inhibitor was also prepared.
Subsequently, each neurosphere was seeded on a 48-well chamber slide (IWAKI & CO., LTD.) coated with poly-L-ornithine/fibronectin, cultured for 14 days in a culture medium containing no growth factor at 37° C. in an environment of 95% air and 5% CO2, and differentiated into nerve cells.
Subsequently, each of the obtained nerve cells was fixed with 4% paraformaldehyde in 0.1 M PBS, and each of βIII-tubulin, which is a nerve cell marker, and the Tau protein, which is frequently distributed in axons, was immunostained, and the length of the neurite was measured.
FIG. 2 is a graph in which the results of FIGS. 1(a) to 1(g) are quantified. […]

phosphorylated p38 = experiment: Immunostaining of phosphorylated p38 in treated neurospheres (Experimental Example 3); conditions: 201B7 neurospheres; 10 μM DAPT, 1 μM Compound 34, 24 hours; vs control
Procedure: Neurospheres derived from 201B7 cells were treated with various γ-secretase inhibitors in the same manner as in Experimental Example 1. As the γ-secretase inhibitor, DAPT, Compound 34, L-685,458, LY411575, Sulindac, and Compound E were used at the same concentrations as in Experimental Example 1. Subsequently, each neurosphere was fixed with paraformaldehyde and subjected to immunostaining of phosphorylated p38.
FIG. 5 is a graph showing the results obtained by quantifying the amount of the phosphorylated p38 in the neurosphere which had been treated with each of the γ-secretase inhibitors. In FIG. 5, “Ctl” indicates the result obtained from the control, “DAPT” indicates the result obtained by the DAPT treatment, “C. 34” indicates the result obtained by Compound 34 treatment, “L-685” indicates the result obtained by the L-685,458 treatment, “LY” indicates the result obtained by the LY411575 treatment, “Suli” indicates the result obtained by the Sulindac treatment, and “Com. E” indicates the result obtained by the Compound E treatment.

GADD45G = experiment: Expression level of GADD45G in treated neurospheres by RNA-seq (Experimental Example 2); conditions: vs control
Procedure: Neurospheres derived from 201B7 cells, which are cells of a human iPS cell line, were prepared in the same manner as in Experimental Example 1.
In addition, neurospheres derived from 414C2 cells, which are cells of a human iPS cell line, were prepared according to the following method. First, 414C2 cells were subjected to adhesion culture for 12 days together with fibroblasts derived from a mouse embryo. Subsequently, the cells were subjected to suspension culture for 30 days to form a germ layer body. Subsequently, the aggregated cells were dissociated, cultured in a culture medium obtained by adding 20 ng/ml of FGF2 (PeproTech, Inc.) to an MHM medium of which the composition is shown in Table 1 above, and differentiated into neurospheres.
Subsequently, each neurosphere derived from iPS cells was treated with each of DAPT and Compound 34. Subsequently, one neurosphere having a diameter of about 100 μm was selected from the neurospheres in each group and subjected to an RNA-seq analysis.
FIG. 3 is a graph showing the results obtained by treating the neurosphere derived from 201B7 cells with each of DAPT and Compound 34, carrying out the RNA-seq analysis, and quantifying the expression level of GADD45G based on transcriptome data. In FIG. 3, “Ctl” indicates the result obtained from the control, “DAPT” indicates the result obtained by the DAPT treatment, and “C. 34” indicates the result obtained by Compound 34 treatment.

[2] = neurosphere derived from 201B7 cells
[3] = neurosphere derived from 414C2 cells

SMILES	neurite outgrowth, Tau protein immunostaining [1]	neurite outgrowth (length of the neurite), βIII-tubulin immunostaining [1]	concentration at which the neurite outgrowth-promoting effect is obtained ([1]; compared with DAPT)	amount of phosphorylated p38 in the neurosphere (phosphorylated p38)	expression of GADD45G (GADD45G; [2])	expression of GADD45G (GADD45G; [3])
O=C1Nc2ccccc2C(c2ccccc2)=N[C@@H]1NC(=O)[C@H](c1ccc(F)cc1)[C@@H](CO)c1ccc(F)c(F)c1 [Compound 34]	particularly promoted	particularly promoted	low concentration as compared with DAPT	significantly increased	significantly increased	significantly increased
C[C@H](NC(=O)Cc1cc(F)cc(F)c1)C(=O)N[C@H](C(=O)OC(C)(C)C)c1ccccc1 [DAPT]	particularly promoted	particularly promoted	–	significantly increased	significantly increased	significantly increased
